Kd data for three compounds are collected here from publication PMC4774911, “Biochemical Screening of Five Protein Kinases from Plasmodium falciparum against 14,000 Cell-Active Compounds” (PLoS ONE, 2016).

Each structure is given as a SMILES string. Several values for one entry are separate records, joined by “and”; a condition that tells them apart may be missing. Equal values may be shown once.

Targets include CDC2 (Homo sapiens, UniProt P06493); PIM1 (Homo sapiens, UniProt P11309); PIM2 (Homo sapiens, UniProt Q9P1W9); RPS6KA5 (Homo sapiens, UniProt O75582); STK38L (Homo sapiens, UniProt Q9Y2H1); CSNK2A2 (Homo sapiens, UniProt P19784).
Common to all, as to test: biochemical
Set-up in all cases: endogenous in cells; host or cells: K562 cell extract; species or system K562 (extract); replicate k of n = 2 (each experiment ID is one independent experiment; two experiment IDs per compound)
Common to all, as to settings: read-out: KDapp

Another test addresses T1, NEK3 (Homo sapiens, UniProt P51956).
T1 sequence (P51956 1-506): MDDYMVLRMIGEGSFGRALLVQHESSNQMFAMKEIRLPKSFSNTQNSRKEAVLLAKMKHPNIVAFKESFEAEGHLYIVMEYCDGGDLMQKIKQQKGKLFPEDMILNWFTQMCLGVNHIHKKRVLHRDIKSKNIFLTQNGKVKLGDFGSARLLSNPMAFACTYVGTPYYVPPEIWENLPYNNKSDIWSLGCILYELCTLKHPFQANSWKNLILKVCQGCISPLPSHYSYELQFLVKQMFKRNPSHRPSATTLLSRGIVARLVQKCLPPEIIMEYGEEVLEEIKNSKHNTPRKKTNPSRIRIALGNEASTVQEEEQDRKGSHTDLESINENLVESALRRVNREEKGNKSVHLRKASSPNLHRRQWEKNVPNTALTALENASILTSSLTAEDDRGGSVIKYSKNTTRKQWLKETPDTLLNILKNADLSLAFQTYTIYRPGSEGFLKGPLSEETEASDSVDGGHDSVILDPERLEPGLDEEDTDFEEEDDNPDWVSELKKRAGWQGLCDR

Another test addresses T2, TAOK3 (Homo sapiens, UniProt Q9H2K8).
T2 sequence (Q9H2K8 1-898): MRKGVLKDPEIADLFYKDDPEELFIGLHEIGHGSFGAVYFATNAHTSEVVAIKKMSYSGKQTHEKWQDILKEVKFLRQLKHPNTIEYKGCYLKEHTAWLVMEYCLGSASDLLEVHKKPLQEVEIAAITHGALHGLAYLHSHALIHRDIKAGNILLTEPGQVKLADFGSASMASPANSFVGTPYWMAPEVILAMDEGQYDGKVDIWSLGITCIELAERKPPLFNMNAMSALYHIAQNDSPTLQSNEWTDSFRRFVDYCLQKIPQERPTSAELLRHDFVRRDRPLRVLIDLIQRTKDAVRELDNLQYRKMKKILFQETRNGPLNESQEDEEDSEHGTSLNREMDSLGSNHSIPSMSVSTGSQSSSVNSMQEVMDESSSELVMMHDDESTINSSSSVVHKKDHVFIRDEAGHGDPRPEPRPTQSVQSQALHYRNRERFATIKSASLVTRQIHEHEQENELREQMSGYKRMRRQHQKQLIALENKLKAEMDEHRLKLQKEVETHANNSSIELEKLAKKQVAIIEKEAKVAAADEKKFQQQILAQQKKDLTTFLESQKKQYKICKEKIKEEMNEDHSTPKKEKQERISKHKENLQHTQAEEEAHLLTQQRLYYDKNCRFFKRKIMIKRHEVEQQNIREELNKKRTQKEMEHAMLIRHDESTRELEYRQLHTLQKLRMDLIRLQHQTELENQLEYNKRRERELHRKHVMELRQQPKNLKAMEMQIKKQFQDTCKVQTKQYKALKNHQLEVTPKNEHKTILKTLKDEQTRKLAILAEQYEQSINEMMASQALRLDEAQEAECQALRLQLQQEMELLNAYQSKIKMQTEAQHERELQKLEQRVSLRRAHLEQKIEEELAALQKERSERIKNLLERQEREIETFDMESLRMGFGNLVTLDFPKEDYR

Chain of RPS6KA5 (O75582 whole entry): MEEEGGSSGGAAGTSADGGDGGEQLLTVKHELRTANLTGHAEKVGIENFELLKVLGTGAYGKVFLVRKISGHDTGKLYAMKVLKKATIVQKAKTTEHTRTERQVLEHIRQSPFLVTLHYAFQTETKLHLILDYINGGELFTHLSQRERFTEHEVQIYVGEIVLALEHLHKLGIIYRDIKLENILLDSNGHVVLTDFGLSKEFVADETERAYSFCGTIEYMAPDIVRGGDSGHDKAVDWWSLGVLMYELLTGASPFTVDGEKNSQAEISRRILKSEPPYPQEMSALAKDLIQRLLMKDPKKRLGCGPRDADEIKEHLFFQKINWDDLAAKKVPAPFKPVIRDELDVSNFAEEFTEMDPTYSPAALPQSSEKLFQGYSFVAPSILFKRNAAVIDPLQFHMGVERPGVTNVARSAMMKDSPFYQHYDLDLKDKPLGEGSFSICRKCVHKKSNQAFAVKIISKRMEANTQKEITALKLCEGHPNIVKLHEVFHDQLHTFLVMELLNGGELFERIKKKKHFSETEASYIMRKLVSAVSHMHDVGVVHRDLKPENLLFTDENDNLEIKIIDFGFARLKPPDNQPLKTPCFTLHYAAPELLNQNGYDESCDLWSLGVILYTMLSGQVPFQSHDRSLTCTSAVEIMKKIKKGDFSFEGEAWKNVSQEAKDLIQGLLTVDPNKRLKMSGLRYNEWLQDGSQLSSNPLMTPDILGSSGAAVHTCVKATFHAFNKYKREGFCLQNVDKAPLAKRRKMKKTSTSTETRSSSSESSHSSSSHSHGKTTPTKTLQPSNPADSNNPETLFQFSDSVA
Chain of PIM1 (P11309 whole entry): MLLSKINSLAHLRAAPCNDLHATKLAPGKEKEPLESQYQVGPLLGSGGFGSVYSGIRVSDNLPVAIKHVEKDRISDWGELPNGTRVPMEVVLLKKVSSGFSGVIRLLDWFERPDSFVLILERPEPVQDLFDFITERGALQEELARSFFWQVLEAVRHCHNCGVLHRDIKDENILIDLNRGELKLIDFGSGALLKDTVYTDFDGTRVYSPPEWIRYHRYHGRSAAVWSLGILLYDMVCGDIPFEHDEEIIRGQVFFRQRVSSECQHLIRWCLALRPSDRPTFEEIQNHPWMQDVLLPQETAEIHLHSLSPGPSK
Chain of CSNK2A2 (P19784 whole entry): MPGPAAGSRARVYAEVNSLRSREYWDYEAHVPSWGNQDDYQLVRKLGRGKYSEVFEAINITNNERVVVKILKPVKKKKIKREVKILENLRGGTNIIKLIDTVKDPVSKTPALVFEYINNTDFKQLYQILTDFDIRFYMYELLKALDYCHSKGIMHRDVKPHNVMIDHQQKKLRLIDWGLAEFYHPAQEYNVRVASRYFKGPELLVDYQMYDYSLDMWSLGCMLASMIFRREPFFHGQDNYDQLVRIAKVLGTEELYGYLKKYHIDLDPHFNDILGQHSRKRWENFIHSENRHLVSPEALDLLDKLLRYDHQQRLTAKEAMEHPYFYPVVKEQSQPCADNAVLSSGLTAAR
Chain of PIM2 (Q9P1W9 whole entry): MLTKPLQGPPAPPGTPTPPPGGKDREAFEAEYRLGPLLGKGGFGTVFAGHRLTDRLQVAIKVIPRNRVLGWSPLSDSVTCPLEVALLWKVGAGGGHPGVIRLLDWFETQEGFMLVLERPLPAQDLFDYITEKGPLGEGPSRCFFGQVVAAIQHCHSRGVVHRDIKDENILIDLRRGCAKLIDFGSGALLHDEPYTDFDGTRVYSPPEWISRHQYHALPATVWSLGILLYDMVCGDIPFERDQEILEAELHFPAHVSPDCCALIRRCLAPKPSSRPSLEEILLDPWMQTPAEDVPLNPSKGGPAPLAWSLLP
Chain of STK38L (Q9Y2H1 whole entry): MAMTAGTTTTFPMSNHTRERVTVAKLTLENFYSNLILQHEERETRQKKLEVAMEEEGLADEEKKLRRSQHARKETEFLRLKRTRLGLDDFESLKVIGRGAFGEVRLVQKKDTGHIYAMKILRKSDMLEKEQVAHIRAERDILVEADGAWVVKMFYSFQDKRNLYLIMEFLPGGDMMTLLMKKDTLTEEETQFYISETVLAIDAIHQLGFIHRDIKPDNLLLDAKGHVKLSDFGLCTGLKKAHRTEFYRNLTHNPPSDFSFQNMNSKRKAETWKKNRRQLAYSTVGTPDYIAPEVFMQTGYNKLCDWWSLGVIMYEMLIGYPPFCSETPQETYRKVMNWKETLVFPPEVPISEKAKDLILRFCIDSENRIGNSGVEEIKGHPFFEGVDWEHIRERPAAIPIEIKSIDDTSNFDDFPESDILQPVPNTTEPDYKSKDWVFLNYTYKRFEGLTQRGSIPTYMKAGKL
Chain of CDC2 (P06493 whole entry): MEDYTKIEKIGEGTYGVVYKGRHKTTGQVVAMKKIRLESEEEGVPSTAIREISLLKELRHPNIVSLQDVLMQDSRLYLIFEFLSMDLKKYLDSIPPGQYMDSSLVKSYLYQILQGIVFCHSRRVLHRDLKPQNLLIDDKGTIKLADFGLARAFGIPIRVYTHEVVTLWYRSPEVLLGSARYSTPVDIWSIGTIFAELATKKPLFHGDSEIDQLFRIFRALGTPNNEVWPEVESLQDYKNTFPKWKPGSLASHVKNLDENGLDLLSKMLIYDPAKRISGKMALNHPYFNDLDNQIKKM

With `CN1CCN(c2ccc(Nc3ncc(C#N)c(Nc4ccccc4C(N)=O)n3)cc2)CC1.Cl` [TCMDC-134116], the Kd was 1210 nM on CDC2; 717 nM at NEK3; 3560 nM and 2970 nM at PIM1; 2970 nM at PIM2; 393 nM and 590 nM on RPS6KA5; 571 nM at STK38L.

As for `Cl.NCC1(c2nc(-c3ccc(Cl)c(O)c3)c(-c3ccncc3)[nH]2)CCCCC1` [TCMDC-141154], the Kd at TAOK3 was 1190 nM and 603 nM.

For `CN(C)CC(O)COc1ccc(Nc2ncc([N+](=O)[O-])c(Nc3ccccc3O)n2)cc1.O=C(O)C(F)(F)F` (centres unmarked) [TCMDC-141399], at CSNK2A2, the Kd is 33.3 nM and 26.8 nM.
